Data from PubChem BioAssay AID504381 (The Scripps Research Institute Molecular Screening Center, 2011).
The source made the active and inactive calls. The rule behind the calls is not given here.

Columns and labels:
Experiment in all cases: radioligand displacement at receptors and transporters – biochemical, PDSP panel, Set 2, late-stage follow-up (AID 504381)
[1] = molecular target: 5-hydroxytryptamine receptor 2B (Homo sapiens) (UniProt P41595); conditions: PDSP radioligand binding panel, Serotonin receptor 5ht2b, at 10 µM, active compounds read high
[2] = system: Adrenergic receptor Alpha1A; conditions: PDSP radioligand binding panel, at 10 µM, active compounds read high
[3] = system: Adrenergic receptor Alpha1B; conditions: PDSP radioligand binding panel, at 10 µM, active compounds read high
[4] = system: Adrenergic receptor Alpha1D; conditions: PDSP radioligand binding panel, at 10 µM, active compounds read high
[5] = system: Adrenergic receptor Beta1; conditions: PDSP radioligand binding panel, at 10 µM, active compounds read high
[6] = system: Adrenergic receptor Beta3; conditions: PDSP radioligand binding panel, at 10 µM, active compounds read high
[7] = molecular target: Beta-2 adrenergic receptor (Homo sapiens) (UniProt P07550); conditions: PDSP radioligand binding panel, Adrenergic receptor Beta2, at 10 µM, active compounds read high
[8] = system: Biogenic amine transporter DAT; conditions: PDSP radioligand binding panel, at 10 µM, active compounds read high
[9] = system: Biogenic amine transporter NET; conditions: PDSP radioligand binding panel, at 10 µM, active compounds read high
[10] = system: Biogenic amine transporter SERT; conditions: PDSP radioligand binding panel, at 10 µM, active compounds read high
[11] = molecular target: D(1A) dopamine receptor (Homo sapiens) (UniProt P21728); conditions: PDSP radioligand binding panel, Dopamine receptor D1, at 10 µM, active compounds read high
[12] = molecular target: D(1B) dopamine receptor (Homo sapiens) (UniProt P21918); conditions: PDSP radioligand binding panel, Dopamine receptor D5, at 10 µM, active compounds read high
[13] = molecular target: D(3) dopamine receptor (Homo sapiens) (UniProt P35462); conditions: PDSP radioligand binding panel, Dopamine receptor D3, at 10 µM, active compounds read high
[14] = molecular target: Delta-type opioid receptor (Homo sapiens) (UniProt P41143); conditions: PDSP radioligand binding panel, Opioid receptor DOR, at 10 µM, active compounds read high
Dopamine receptor D2 = conditions: PDSP radioligand binding panel, at 10 µM, active compounds read high
Dopamine receptor D4 = conditions: PDSP radioligand binding panel, at 10 µM, active compounds read high
GABA receptor GABAa = conditions: PDSP radioligand binding panel, at 10 µM, active compounds read high
Histamine receptor H1 = conditions: PDSP radioligand binding panel, at 10 µM, active compounds read high
Histamine receptor H2 = conditions: PDSP radioligand binding panel, at 10 µM, active compounds read high
Histamine receptor H3 = conditions: PDSP radioligand binding panel, at 10 µM, active compounds read high
Histamine receptor H4 = conditions: PDSP radioligand binding panel, at 10 µM, active compounds read high
[15] = molecular target: Kappa-type opioid receptor (Homo sapiens) (UniProt P41145); conditions: PDSP radioligand binding panel, Opioid receptor KOR, at 10 µM, active compounds read high
[16] = molecular target: Muscarinic acetylcholine receptor M1 (Homo sapiens) (UniProt P11229); conditions: PDSP radioligand binding panel, at 10 µM, active compounds read high
[17] = molecular target: Muscarinic acetylcholine receptor M2 (Homo sapiens) (UniProt P08172); conditions: PDSP radioligand binding panel, at 10 µM, active compounds read high
[18] = molecular target: Muscarinic acetylcholine receptor M3 (Homo sapiens) (UniProt P20309); conditions: PDSP radioligand binding panel, at 10 µM, active compounds read high
Muscarinic receptor M4 = conditions: PDSP radioligand binding panel, at 10 µM, active compounds read high
Muscarinic receptor M5 = conditions: PDSP radioligand binding panel, at 10 µM, active compounds read high
Opioid receptor MOR = conditions: PDSP radioligand binding panel, at 10 µM, active compounds read high
Serotonin receptor 5ht1a = conditions: PDSP radioligand binding panel, at 10 µM, active compounds read high
Serotonin receptor 5ht1b = conditions: PDSP radioligand binding panel, at 10 µM, active compounds read high
Serotonin receptor 5ht1d = conditions: PDSP radioligand binding panel, at 10 µM, active compounds read high
Serotonin receptor 5ht1e = conditions: PDSP radioligand binding panel, at 10 µM, active compounds read high
Serotonin receptor 5ht2a = conditions: PDSP radioligand binding panel, at 10 µM, active compounds read high
Serotonin receptor 5ht2c = conditions: PDSP radioligand binding panel, at 10 µM, active compounds read high
Serotonin receptor 5ht3 = conditions: PDSP radioligand binding panel, at 10 µM, active compounds read high
Serotonin receptor 5ht5a = conditions: PDSP radioligand binding panel, at 10 µM, active compounds read high
Serotonin receptor 5ht6 = conditions: PDSP radioligand binding panel, at 10 µM, active compounds read high
Serotonin receptor 5ht7 = conditions: PDSP radioligand binding panel, at 10 µM, active compounds read high
Sigma receptor 1 = conditions: PDSP radioligand binding panel, at 10 µM, active compounds read high

Sequence of Beta-2 adrenergic receptor (Homo sapiens) (P07550 whole entry, looked up): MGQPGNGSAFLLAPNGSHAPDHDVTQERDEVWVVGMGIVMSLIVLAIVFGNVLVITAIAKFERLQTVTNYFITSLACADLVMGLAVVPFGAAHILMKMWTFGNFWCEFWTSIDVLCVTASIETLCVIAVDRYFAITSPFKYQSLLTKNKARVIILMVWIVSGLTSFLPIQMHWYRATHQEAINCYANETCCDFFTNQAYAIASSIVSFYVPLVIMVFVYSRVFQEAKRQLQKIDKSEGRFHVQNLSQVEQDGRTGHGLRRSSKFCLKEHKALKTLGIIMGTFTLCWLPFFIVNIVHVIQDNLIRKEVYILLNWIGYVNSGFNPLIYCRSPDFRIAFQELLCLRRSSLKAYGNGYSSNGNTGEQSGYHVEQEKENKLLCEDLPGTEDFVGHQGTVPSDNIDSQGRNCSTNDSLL
Sequence of D(1A) dopamine receptor (Homo sapiens) (P21728 whole entry, looked up): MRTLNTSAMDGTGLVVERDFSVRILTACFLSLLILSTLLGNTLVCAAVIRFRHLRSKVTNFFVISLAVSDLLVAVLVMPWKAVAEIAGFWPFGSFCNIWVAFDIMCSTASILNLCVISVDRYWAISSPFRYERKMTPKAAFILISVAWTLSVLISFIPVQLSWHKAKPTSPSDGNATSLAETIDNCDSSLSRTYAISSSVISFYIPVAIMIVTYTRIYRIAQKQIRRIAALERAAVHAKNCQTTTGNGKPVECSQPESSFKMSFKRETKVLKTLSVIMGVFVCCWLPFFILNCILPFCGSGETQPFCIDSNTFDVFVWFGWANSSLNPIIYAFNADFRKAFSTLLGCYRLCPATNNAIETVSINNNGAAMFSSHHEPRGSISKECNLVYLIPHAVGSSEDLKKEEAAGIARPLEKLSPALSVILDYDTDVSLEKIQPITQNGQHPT
Sequence of Muscarinic acetylcholine receptor M1 (Homo sapiens) (P11229 whole entry, looked up): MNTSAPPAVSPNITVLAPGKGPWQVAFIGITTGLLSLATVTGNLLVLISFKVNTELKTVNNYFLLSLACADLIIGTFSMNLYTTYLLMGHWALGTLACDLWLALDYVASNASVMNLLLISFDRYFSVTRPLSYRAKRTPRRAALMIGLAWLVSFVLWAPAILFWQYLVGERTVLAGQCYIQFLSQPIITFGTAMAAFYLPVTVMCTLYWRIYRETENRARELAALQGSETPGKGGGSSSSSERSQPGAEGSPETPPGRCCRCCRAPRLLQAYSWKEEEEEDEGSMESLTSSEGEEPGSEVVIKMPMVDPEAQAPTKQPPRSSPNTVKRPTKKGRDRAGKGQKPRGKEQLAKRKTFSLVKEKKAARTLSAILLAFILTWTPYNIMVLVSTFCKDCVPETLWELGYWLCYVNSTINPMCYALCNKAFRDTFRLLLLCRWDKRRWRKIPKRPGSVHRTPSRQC
Sequence of Delta-type opioid receptor (Homo sapiens) (P41143 whole entry, looked up): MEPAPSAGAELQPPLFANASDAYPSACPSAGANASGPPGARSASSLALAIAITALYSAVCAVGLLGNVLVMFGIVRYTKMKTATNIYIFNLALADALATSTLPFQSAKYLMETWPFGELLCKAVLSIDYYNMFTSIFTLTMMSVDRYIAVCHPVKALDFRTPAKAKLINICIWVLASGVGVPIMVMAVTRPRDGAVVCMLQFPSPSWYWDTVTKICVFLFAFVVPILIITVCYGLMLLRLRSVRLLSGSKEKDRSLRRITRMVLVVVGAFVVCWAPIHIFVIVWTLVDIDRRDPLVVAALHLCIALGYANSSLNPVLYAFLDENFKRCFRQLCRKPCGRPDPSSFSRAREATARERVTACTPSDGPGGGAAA
Sequence of Muscarinic acetylcholine receptor M2 (Homo sapiens) (P08172 whole entry, looked up): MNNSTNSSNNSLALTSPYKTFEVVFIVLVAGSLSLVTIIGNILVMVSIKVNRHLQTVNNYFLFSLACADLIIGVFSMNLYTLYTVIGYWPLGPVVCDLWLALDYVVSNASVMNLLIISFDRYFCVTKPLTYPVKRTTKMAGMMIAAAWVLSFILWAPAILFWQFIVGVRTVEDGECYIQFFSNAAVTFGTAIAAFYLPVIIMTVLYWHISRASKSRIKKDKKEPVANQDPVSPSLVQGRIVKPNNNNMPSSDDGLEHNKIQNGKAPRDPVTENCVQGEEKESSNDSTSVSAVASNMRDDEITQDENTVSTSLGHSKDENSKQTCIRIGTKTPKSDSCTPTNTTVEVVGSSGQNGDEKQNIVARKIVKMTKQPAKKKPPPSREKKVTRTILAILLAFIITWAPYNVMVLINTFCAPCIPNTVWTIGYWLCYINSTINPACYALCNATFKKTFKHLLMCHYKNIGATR
Sequence of D(1B) dopamine receptor (Homo sapiens) (P21918 whole entry, looked up): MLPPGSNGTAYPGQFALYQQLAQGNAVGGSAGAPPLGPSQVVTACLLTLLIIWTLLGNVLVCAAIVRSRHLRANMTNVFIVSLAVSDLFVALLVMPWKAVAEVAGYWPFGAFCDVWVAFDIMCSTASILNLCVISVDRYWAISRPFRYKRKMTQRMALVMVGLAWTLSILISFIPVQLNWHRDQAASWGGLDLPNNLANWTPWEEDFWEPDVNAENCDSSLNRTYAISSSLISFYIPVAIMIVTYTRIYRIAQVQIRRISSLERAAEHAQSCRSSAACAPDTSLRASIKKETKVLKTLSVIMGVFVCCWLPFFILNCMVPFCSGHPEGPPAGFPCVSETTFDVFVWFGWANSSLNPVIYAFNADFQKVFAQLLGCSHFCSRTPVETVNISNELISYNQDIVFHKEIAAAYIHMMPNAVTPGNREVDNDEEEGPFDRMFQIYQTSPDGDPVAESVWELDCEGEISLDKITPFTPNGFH
Sequence of D(3) dopamine receptor (Homo sapiens) (P35462 whole entry, looked up): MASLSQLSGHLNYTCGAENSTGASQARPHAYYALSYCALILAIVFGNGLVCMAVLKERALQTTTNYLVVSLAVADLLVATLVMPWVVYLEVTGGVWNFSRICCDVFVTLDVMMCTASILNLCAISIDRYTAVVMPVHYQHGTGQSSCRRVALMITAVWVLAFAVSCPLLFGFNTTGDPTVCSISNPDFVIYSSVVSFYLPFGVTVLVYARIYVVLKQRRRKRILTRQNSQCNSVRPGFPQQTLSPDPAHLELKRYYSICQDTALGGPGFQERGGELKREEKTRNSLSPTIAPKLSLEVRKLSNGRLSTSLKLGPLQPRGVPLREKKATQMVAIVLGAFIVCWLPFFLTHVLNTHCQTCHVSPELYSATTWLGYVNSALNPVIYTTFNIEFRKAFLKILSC
Sequence of Kappa-type opioid receptor (Homo sapiens) (P41145 whole entry, looked up): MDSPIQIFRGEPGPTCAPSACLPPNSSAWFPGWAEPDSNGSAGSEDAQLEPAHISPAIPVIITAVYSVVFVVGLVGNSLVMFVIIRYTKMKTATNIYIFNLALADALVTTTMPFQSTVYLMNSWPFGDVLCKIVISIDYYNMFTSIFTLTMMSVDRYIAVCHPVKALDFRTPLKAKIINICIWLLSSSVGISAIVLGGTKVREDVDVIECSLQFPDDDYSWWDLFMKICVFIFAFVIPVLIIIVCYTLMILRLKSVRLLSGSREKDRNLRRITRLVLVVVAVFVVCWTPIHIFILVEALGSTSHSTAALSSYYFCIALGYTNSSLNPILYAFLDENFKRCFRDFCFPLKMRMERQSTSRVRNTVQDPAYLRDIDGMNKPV
Sequence of 5-hydroxytryptamine receptor 2B (Homo sapiens) (P41595 whole entry, looked up): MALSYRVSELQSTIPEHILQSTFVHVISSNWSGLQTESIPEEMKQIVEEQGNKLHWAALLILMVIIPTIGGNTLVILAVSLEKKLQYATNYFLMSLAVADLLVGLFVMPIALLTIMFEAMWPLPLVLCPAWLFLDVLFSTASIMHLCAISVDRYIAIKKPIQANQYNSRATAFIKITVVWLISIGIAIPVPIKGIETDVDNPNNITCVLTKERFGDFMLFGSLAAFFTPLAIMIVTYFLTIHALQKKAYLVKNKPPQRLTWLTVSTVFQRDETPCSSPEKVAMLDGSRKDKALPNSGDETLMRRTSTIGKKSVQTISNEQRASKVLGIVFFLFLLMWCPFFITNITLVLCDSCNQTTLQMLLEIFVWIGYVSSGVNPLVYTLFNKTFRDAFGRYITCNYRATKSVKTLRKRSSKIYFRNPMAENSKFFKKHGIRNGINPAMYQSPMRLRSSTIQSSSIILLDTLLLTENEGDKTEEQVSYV
Sequence of Muscarinic acetylcholine receptor M3 (Homo sapiens) (P20309 whole entry, looked up): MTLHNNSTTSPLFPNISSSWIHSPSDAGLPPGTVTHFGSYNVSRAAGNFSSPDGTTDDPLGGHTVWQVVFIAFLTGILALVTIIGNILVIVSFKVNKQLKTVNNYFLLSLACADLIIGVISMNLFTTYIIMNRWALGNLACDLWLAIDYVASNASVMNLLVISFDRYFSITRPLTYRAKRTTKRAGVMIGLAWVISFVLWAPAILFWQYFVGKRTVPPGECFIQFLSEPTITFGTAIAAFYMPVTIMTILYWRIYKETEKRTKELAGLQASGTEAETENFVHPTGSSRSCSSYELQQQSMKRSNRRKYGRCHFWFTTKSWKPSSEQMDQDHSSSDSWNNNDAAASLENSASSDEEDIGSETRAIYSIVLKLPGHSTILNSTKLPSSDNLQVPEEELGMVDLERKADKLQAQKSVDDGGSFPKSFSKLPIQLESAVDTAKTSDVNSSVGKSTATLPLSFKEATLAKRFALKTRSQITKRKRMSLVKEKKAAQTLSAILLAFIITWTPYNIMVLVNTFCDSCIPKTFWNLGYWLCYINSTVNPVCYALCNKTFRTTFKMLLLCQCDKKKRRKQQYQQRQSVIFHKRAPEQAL

inhibition [1]: 78.9% | inhibition [2]: -2.9% (inactive) | inhibition [3]: 9% (inactive) | inhibition [4]: 17.9% (inactive) | inhibition [5]: 2.6% (inactive) | inhibition [6]: -13.9% (inactive) | inhibition [7]: 11.4% (inactive) | inhibition [8]: 29.1% (inactive) | inhibition [9]: 74.1% (inactive) | inhibition [10]: 8.8% (inactive) | inhibition [11]: 13.9% (inactive) | inhibition [12]: 38.7% (inactive) | inhibition [13]: 97.3% | inhibition [14]: 0.8% (inactive) | inhibition (Dopamine receptor D2): -1.5% (inactive) | inhibition (Dopamine receptor D4): 0.9% (inactive) | inhibition (GABA receptor GABAa): 28.7% (inactive) | inhibition (Histamine receptor H1): 35.7% (inactive) | inhibition (Histamine receptor H2): 9.9% (inactive) | inhibition (Histamine receptor H3): 4% (inactive) | inhibition (Histamine receptor H4): -16% (inactive) | inhibition [15]: 102% | inhibition [16]: -14.2% (inactive) | inhibition [17]: -6.7% (inactive) | inhibition [18]: -0.4% (inactive) | inhibition (Muscarinic receptor M4): -9.4% (inactive) | inhibition (Muscarinic receptor M5): 10.5% (inactive) | inhibition (Opioid receptor MOR): 16.6% (inactive) | inhibition (Serotonin receptor 5ht1a): 21.4% (inactive) | inhibition (Serotonin receptor 5ht1b): 5.8% (inactive) | inhibition (Serotonin receptor 5ht1d): 15.3% (inactive) | inhibition (Serotonin receptor 5ht1e): -36.5% (inactive) | inhibition (Serotonin receptor 5ht2a): 0.5% (inactive) | inhibition (Serotonin receptor 5ht2c): 31.5% (inactive) | inhibition (Serotonin receptor 5ht3): 7.8% (inactive) | inhibition (Serotonin receptor 5ht5a): -7.7% (inactive) | inhibition (Serotonin receptor 5ht6): 3.5% (inactive) | inhibition (Serotonin receptor 5ht7): -19% (inactive) | inhibition (Sigma receptor 1): 6.3% (inactive)
SMILES: CC(=O)c1ccc2c(c1)Nc1ccccc1S2
